Results on seven compounds are retold here after patent publication US7071231B2, “Naphthalene ureas as glucose uptake enhancers” (Telik, Inc., priority 1999, dated 2006).

SMILES strings stand for the structures. Read-outs that look alike come from different tables or passages of the source.

One experiment has as its system 3T3 L1 fibroblasts. Put plainly: Glucose transport activity assay (14C-2-deoxy-D-glucose uptake). It is filed as cell-based. The settings on record: EC (effective concentration) for increase in glucose transport, 14C-2-deoxy-D-glucose, 3T3 L1 cells, read-out: Concentration (μM) to reach >150% activity of vehicle control. A digest of the protocol: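 Differentiated 3T3 L1 adipocytes (IBMX/dexamethasone/insulin induction), serum-starved overnight, preincubated 30 min at 37 °C with compound ± insulin in pH 7.4 salt buffer, then 30 min with 5 μCi/ml 14C-2-deoxy-D-glucose. Lysate radioactivity counted; EC = concentration raising uptake above 150% of vehicle control.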

In the next experiment the test system is STZ/HFD rat. In words: Blood glucose determination in the STZ/HFD rat model of Type 2 diabetes. In kind it is in vivo. The note with it: STZ/HFD rat model, oral compound administration (30 mg/kg). The source says:
Blood Glucose Determination in the STZ/HFD Rat Model of Type 2 Diabetes
Representative compounds were also profiled in genetically normal rats given a high-fat diet followed by treatment with a low dose of streptozotocin (STZ/HFD). This treatment regimen recreates both the insulin resistance and the hyperglycemia seen in human Type 2 diabetes. Male CD rats (Jackson Labs, Bar Harbor Me.) were maintained according to NIH guidelines, housed two per cage, and fed either standard lab chow (Tekland Laboratory Diets, James Grain, San Jose, Calif.) or the same chow supplemented with chocolate bars, cookies, and potato chips such that their final diet contained 30% fat by weight (high-fat diet; HFD). After two weeks of this diet, the animals were given an injection of freshly-prepared streptozotocin (35 mg/kg, i.p.) and continued on the HFD. Animals that achieved glucose levels of 190 to 380 mg/dl were used in this study. At the end of the 12-hour light/dark cycle, and just prior to the experiment, the animals were moved to new cages with no food available until 4 hours after treatment. The compound or vehicle (PBS) was given p.o. by gavage, and blood was sampled by approved IACUC protocol using tail cap method. Glucose was determined using the Glucometer Elite (Bayer, Elkhart, Ind.).
The reduction was maximal (20%) 4 hours after the administration of Compound 15.

Experiment [1] deals with T1, β-kinase domain of the human insulin receptor (CKD) (Homo sapiens, UniProt P06213).
T1 construct: The complete β-kinase domain of the human insulin receptor (CKD) was expressed in, and purified from, baculovirus; made in house
T1 sequence (P06213 980-1382 limits assumed): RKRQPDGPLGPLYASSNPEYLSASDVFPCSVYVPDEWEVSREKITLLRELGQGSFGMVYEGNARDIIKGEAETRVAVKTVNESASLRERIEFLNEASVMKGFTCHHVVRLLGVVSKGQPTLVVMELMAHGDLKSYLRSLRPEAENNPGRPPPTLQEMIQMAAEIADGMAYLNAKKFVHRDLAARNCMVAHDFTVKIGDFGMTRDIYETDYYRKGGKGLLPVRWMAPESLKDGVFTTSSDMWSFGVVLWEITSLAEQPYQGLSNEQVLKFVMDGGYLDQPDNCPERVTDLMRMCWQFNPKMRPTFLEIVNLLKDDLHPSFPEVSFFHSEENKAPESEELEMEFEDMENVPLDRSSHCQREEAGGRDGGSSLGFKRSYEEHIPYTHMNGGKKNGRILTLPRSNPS
Put plainly: 32P-cytoplasmic kinase domain (CKD) autophosphorylation assay. In kind it is biochemical. The note with it: phosphorylation of CKD expressed as % of the vehicle level; 10 minutes at room temperature; compound concentration not given. The procedure:
^32P-cytoplasmic Kinase Domain (CKD) Autophosphorylation Assay The insulin signaling pathway is activated through stimulation of the insulin receptor. A major component of this activation is the phosphorylation of a specific portion of the receptor called the β-kinase domain. The complete β-kinase domain of the human insulin receptor (CKD) was expressed in, and purified from, baculovirus. CKD (4.0μg/ml), in a solution of 29 mM HEPES (pH 7.6), 0.05% Triton X-100, 10 mM MgCl2, 2 mM MnCl2 (50 μl final volume), was combined with 50 μM ATP, and 5 μCi ^32P-ATP (3000Ci/mmol.). A test compound, or the vehicle (dimethyl sulfoxide (DMSO)) was added to a final DMSO concentration of 1%. The mixture was incubated for 10 minutes at room temperature. The reaction was terminated by the addition of 10 μl 200 mM EDTA. A 30 μl volume was removed, mixed with 5 μl of 6× Laemmeli sodium dodecyl sulfate (SDS) treatment buffer, and heated to 94° C. for 5 minutes. A 20 μl aliquot was then run an SDS-PAGE gel. The radioactivity incorporated into the CKD band was quantified by phosphorimaging of the gel, or scintillation counting of the excised bands. The potency of a compound for increasing phosphorylation was expressed as % of the vehicle level.

For the compound `O=C(Nc1ccc2c(O)cc(S(=O)(=O)Nc3ccc(C(=O)O)cc3)cc2c1)Nc1ccc2c(O)cc(S(=O)(=O)Nc3ccc(C(=O)O)cc3)cc2c1` [Compound 29, 4-{[(7-{[N-(7-{[(4-carboxyphenyl)amino]sulfonyl}-5-hydroxy(2-naphthyl))carbamoyl]amino}-4-hydroxy-2-naphthyl)sulfonyl]amino}benzoic acid], the EC (150% of vehicle control) in the experiment on 3T3 L1 fibroblasts (Mus musculus) stood at 3.2 µM. Besides, in the experiment on STZ/HFD rat, the “% Reduction in Blood Glucose (maximal reduction)” value (from here on “% Reduction in Blood Glucose”) is listed as 18% and the “Time (h) at which maximal reduction in blood glucose occurred” value (“Time (h) at which maximal reduction” for short) was found to be 6 h. In addition, in experiment [1], the “% Activity vs. Control” value came out at 106%.
For `COC(=O)c1cccc(NS(=O)(=O)c2cc(O)c3ccc(NC(=O)Nc4ccc5c(O)cc(S(=O)(=O)Nc6cccc(C(=O)OC)c6)cc5c4)cc3c2)c1` [Compound 41, methyl 3-({[4-hydroxy-7-({[5-hydroxy-7-({[3-(methoxycarbonyl)phenyl]amino}sulfonyl)(2-naphthyl)]amino}carbonylamino)-2-naphthyl]sulfonyl}amino)benzoate], in that order: 32 µM, 20%, 4 h and 109%.
In the case of `O=C(Nc1ccc2ccc(S(=O)(=O)Nc3ccc(Cl)c(C(=O)O)c3)cc2c1)Nc1ccc2ccc(S(=O)(=O)Nc3ccc(Cl)c(C(=O)O)c3)cc2c1` [Compound 48, 5-{[(7-{[N-(7-{[(3-carboxy-4-chlorophenyl)amino]sulfonyl}(2-naphthyl))carbamoyl]amino}(2-naphthyl))sulfonyl]amino}-2-chlorobenzoic acid], in the experiment with 3T3 L1 fibroblasts (Mus musculus), the EC (150% of vehicle control) was 3.2 µM. Also, in the experiment on STZ/HFD rat, the “% Reduction in Blood Glucose” value was 24% and the “Time (h) at which maximal reduction” value is given as 2 h.
Turning to `O=C(Nc1ccc2c(O)cc(S(=O)(=O)Nc3ccc(Cl)c(S(=O)(=O)O)c3)cc2c1)Nc1ccc2c(O)cc(S(=O)(=O)Nc3ccc(Cl)c(S(=O)(=O)O)c3)cc2c1` [Compound 93, 2-chloro-5-{[(7-{[(7-{[(4-chloro-3-sulfophenyl)amino]sulfonyl}-5-hydroxy(2-naphthyl))amino]carbonylamino}-4-hydroxy(2-naphthyl))sulfonyl]amino}benzenesulfonic acid], the EC (150% of vehicle control) in the experiment on 3T3 L1 fibroblasts (Mus musculus) amounted to 3.2 µM. Also, in the experiment with STZ/HFD rat, the “% Reduction in Blood Glucose” value was found to be 25% and the “Time (h) at which maximal reduction” value is recorded as 4 h.
For `CCOC(=O)COc1cc(S(=O)(=O)O)cc2cc(NC(=O)Nc3ccc4c(O)cc(S(=O)(=O)O)cc4c3)ccc12.N.N` [Compound 94, 7-[({5-[(ethoxycarbonyl)methoxy]-7-sulfo(2-naphthyl)}amino)carbonylamino]-4-hydroxy-naphthalene-2-sulfonic acid, diammonium salt], the EC (150% of vehicle control) with 3T3 L1 fibroblasts is reported as 32 µM. In addition, the “% Activity vs. Control” value in experiment [1] came to 279%.
Turning to `COc1cc(S(=O)(=O)O)cc2cc(NC(=O)Nc3ccc4c(O)cc(S(=O)(=O)O)cc4c3)ccc12` [Compound 98, 4-hydroxy-7-{[(5-methoxy-7-sulfo(2-naphthyl))amino]carbonylamino}naphthalene-2-sulfonic acid], the EC (150% of vehicle control) in the experiment with 3T3 L1 fibroblasts (Mus musculus) was 32 µM. The “% Activity vs. Control” value in experiment [1] was found to be 166%.
As to `COc1cc(S(=O)(=O)O)cc2cc(NC(=O)Nc3ccc4c(OC)cc(S(=O)(=O)O)cc4c3)ccc12` [Compound 99, 4-methoxy-7-{[(5-methoxy-7-sulfo(2-naphthyl))amino]carbonylamino}naphthalene-2-sulfonic acid], the EC (150% of vehicle control) in the experiment with 3T3 L1 fibroblasts (Mus musculus) came out at 32 µM. Besides, in experiment [1], the “% Activity vs. Control” value worked out at 110%.
